Reference: patent US4804684A, “Symmetrical O-substituted dioximes of benzo-fused β-diketocyclo-alkylenes, the processes for their preparation and their application as drugs” (Panmedica S.A., priority 1986, dated 1989)
Values after ≈ are worked out from the molar mass of the structure shown. Structures can show the parent of a compound that is named as a salt.

Legend:
[1] = system: platelet-rich human plasma; platelet aggregation induced by ADP; experiment: Platelet aggregation (platelet-rich human plasma) induced in vitro by ADP; type: cell-based; conditions: platelet-rich human plasma, 300,000 platelets/cm^2, 2.0 μg/ml of ADP; read-out: IC50, inductor: ADP
Protocol: (§1) Study of the Effects on the Platelet Aggregation (Platelet-Rich Human Plasma) Induced in Vitro By: ADP, Collagen or Arachidonic Acid Blood samples from volunteer donors are treated and adjusted to a platelet concentration of 300,000/cm^2 and then incubated with different concentrations of the test products. Aggregation is induced by 2.0 μg/ml of ADP or by 10.0 μg/ml of collagen. The measurements are made using a Bryston-type aggregometer--or CHRONOLOG. The changes in optical density are noted and the values of the concentrations which cause a 50% inhibition are calculated.

[2] = system: platelet-rich human plasma; platelet aggregation induced by collagen; experiment: Platelet aggregation (platelet-rich human plasma) induced in vitro by collagen; type: cell-based; conditions: platelet-rich human plasma, 300,000 platelets/cm^2, 10.0 μg/ml of collagen; read-out: IC50, inductor: collagen
Protocol: as §1

platelet aggregation = experiment: In vitro inhibition of platelet aggregation (BORN's method), induced by collagen or ADP; type: cell-based, animal and human; conditions: 100 μg/ml, aspirin as reference
Protocol: In vitro inhibition of platelet aggregation The inhibition of platelet aggregation is measured in vitro by BORN's method (Nature 4832, 927 (1962)), the aggregation being induced by collagen or ADP. […] The aggregation can also be induced in vitro by serotonin, arachidonic acid and norepinephrine. Furthermore, this inhibitory effect was observed on platelet-rich plasma (PRP) of animal origin and human origin.

| IC50 [1] | IC50 [2] | SMILES | inhibition of platelet aggregation compared with aspirin (platelet aggregation) |
| --- | --- | --- | --- |
| 650 µg/mL (≈ 1500 µM) | 800 µg/mL (≈ 1850 µM) | c1ccc(CON=C2CC(=NOCc3ccccc3)c3ccccc3-c3ccccc32)cc1 [Example 8, 5,7-Bis(Benzyloxyimino)-6,7-Dihydro-(5H)-Dibenzo[a,c]Cycloheptene] |  |
| 600 µg/mL (≈ 1300 µM) | 600 µg/mL (≈ 1300 µM) | c1ccc(CCON=C2CC(=NOCCc3ccccc3)c3ccccc3-c3ccccc32)cc1 [Example 9, 5,7-Bis(2-Phenylethoxyimino)-6,7-Dihydro-(5H)-Dibenzo[a,c]Cycloheptene] |  |
| 16 µg/mL | 25 µg/mL | CCN(CC)CCON=C1c2ccccc2-c2ccccc2C(=NOCCN(CC)CC)C1c1ccc(OC)cc1.Cl.Cl (stereo not shown) [Example 35, 5,7-Bis(Diethylaminoethoxyimino)-6-(4-Methoxyphenyl)-6,7-Dihydro-(5H)-Dibenzo[a,c]Cycloheptene Dihydrochloride] | comparable or even superior to aspirin |
| 450 µg/mL (≈ 936 µM) | 670 µg/mL (≈ 1390 µM) | CCOC(=O)CCCON=C1CC(=NOCCCC(=O)OCC)c2ccccc2-c2ccccc21 [Example 12, 5,7-Bis(Ethoxycarbonylpropoxyimino)-6,7-Dihydro-(5H)-Dibenzo[a,c]Cycloheptene] |  |
| 650 µg/mL (≈ 1960 µM) | 800 µg/mL (≈ 2410 µM) | C=CCON=C1CC(=NOCC=C)c2ccccc2-c2ccccc21 [Example 1, 5,7 -Bis(Allyloxyimino)-6,7-Dihydro-(5H)-Dibenzo[a,c]Cycloheptene] |  |
| 24 µg/mL | 40 µg/mL | CCN(CC)CCON=C1c2ccccc2-c2ccccc2C(=NOCCN(CC)CC)C1c1ccc(Cl)cc1.Cl.Cl (stereo not shown) [Example 34, 5,7-Bis(2-Diethylaminoethoxyimino)-6-(4-Chlorophenyl)-6,7-Dihydro-(5H)-Dibenzo[a,c]Cycloheptene Dihydrochloride] | comparable or even superior to aspirin |
| 400 µg/mL (≈ 942 µM) | 650 µg/mL (≈ 1530 µM) | CCOC(=O)CON=C1CC(=NOCC(=O)OCC)c2ccccc2-c2ccccc21 [Example 10, 5,7-Bis(Ethoxycarbonylmethoxyimino)-6,7-Dihydro-(5H)-Dibenzo[a,c]Cycloheptene] |  |
|  | 800 µg/mL (≈ 2850 µM) | CON=C1CC(=NOC)c2ccccc2-c2ccccc21 [Example 2, 5,7-Bis(Methoxyimino)-6,7-Dihydro-(5H)-Dibenzo[a,c]Cycloheptene] |  |
| 20 µg/mL | 38 µg/mL | c1ccc(C2C(=NOCCN3CCCCC3)c3ccccc3C2=NOCCN2CCCCC2)cc1 (stereo not shown) [Example 25, 1,3-Bis(2-Piperidin-1-ylethoxyimino)-2-Phenyl-(1H)-Indene-(2H) Dihydrochloride] | comparable or even superior to aspirin |
| 210 µg/mL (≈ 495 µM) | 150 µg/mL (≈ 353 µM) | CCOC(=O)CON=C1c2ccccc2C(=NOCC(=O)OCC)C1c1ccccc1 (stereo not shown) [Example 30, 1,3-Bis(Ethoxycarbonylmethoxyimino)-2-Phenyl-(1H)-Indene-(2H)] | comparable or even superior to aspirin |
|  | 250 µg/mL (≈ 679 µM) | O=C(O)CON=C1c2ccccc2C(=NOCC(=O)O)C1c1ccccc1 (stereo not shown) [Example 31, 1,3-Bis(Hydroxycarbonylmethoxyimino)-2-Phenyl-(1H)-Indene-(2H)] |  |
| 80 µg/mL | 120 µg/mL | Cl.Cl.c1ccc2c(c1)C(=NOCCN1CCCCC1)CC(=NOCCN1CCCCC1)c1ccccc1-2 [Example 20, 5,7-Bis(Piperidin-1-ylethoxyimino)-6,7-Dihydro-(5H)-Dibenzo[a,c]Cycloheptene Dihydrochloride] | comparable or even superior to aspirin |
| 24 µg/mL | 40 µg/mL | CCN(CC)CCON=C1c2ccccc2C(=NOCCN(CC)CC)C1c1ccccc1 (stereo not shown) [Example 21, 1,3-Bis(2-Diethylaminoethoxyimino)-2-Phenyl-(1H)-Indene-(2H) Dihydrochloride] | comparable or even superior to aspirin |
| 420 µg/mL | 350 µg/mL | c1ccc2c(c1)C(=NOCCN1CCOCC1)CC2=NOCCN1CCOCC1 [Example 23, 1,3-Bis(2-Morpholinoethoxyimino)-(1H)-Indene-(2H) Dihydrochloride] |  |
| 600 µg/mL (≈ 1780 µM) | 420 µg/mL (≈ 1250 µM) | CCCON=C1CC(=NOCCC)c2ccccc2-c2ccccc21 [Example 4, 5,7-Bis(n-Propoxyimino)-6,7-Dihydro-(5H)-Dibenzo[a,c]Cycloheptene] |  |
| 210 µg/mL | 340 µg/mL | c1ccc(C2C(=NOCCN3CCOCC3)c3ccccc3C2=NOCCN2CCOCC2)cc1 (stereo not shown) [Example 24, 1,3-Bis(2-Morpholinoethoxyimino)-2-Phenyl-(1H)-Indene-(2H) Dihydrochloride] | comparable or even superior to aspirin |
| 18 µg/mL | 24 µg/mL | COc1ccc(C2C(=NOCCN3CCCCC3)c3ccccc3C2=NOCCN2CCCCC2)cc1 (stereo not shown) [Example 26, 1,3-Bis(2-Piperidin-1-ylethoxyimino-2-(4-Methoxyphenyl-(1H)-Indene-(2H) Dihydrochloride] | comparable or even superior to aspirin |
| 600 µg/mL (≈ 1350 µM) | 600 µg/mL (≈ 1350 µM) | c1ccc2c(c1)C(=NOCC1CCCCC1)CC(=NOCC1CCCCC1)c1ccccc1-2 [Example 7, 5,7-Bis(Cyclohexylmethoxyimino)-6,7-Dihydro-(5H)-Dibenzo[a,c]Cycloheptene] |  |
| 18 µg/mL | 20 µg/mL | CCN(CC)CCON=C1c2ccccc2-c2ccccc2C(=NOCCN(CC)CC)C1c1ccccc1.Cl.Cl (stereo not shown) [Example 32, 5,7-Bis(2-Diethylaminoethoxyimino)-6-Phenyl-6,7-Dihydro-(5H)-Dibenzo[a,c]Cycloheptene Dihydrochloride] | comparable or even superior to aspirin |
| 28 µg/mL | 40 µg/mL | CCN(CC)CCON=C1c2ccccc2C(=NOCCN(CC)CC)C1c1ccc(Cl)cc1 (stereo not shown) [Example 27, 1,3-Bis(2-Diethylaminoethoxyimino)-2-(4-Chlorophenyl)-(1H)-Indene-(2H) Dihydrochloride] | comparable or even superior to aspirin |
| 620 µg/mL (≈ 2010 µM) | 500 µg/mL (≈ 1620 µM) | CCON=C1CC(=NOCC)c2ccccc2-c2ccccc21 [Example 3, 5,7-Bis(Ethoxyimino)-6,7-Dihydro-(5H)-Dibenzo[a,c]Cycloheptene] |  |
| 420 µg/mL (≈ 1090 µM) | 650 µg/mL (≈ 1680 µM) | N#CCCCON=C1CC(=NOCCCC#N)c2ccccc2-c2ccccc21 [Example 5, 5,7-Bis(3-Cyanopropoxyimino)-6,7-Dihydro-(5H)-Dibenzo[a,c]Cycloheptene] |  |
| 400 µg/mL (≈ 1090 µM) | 450 µg/mL (≈ 1220 µM) | O=C(O)CON=C1CC(=NOCC(=O)O)c2ccccc2-c2ccccc21 [Example 13, 5,7-Bis(Hydroxycarbonylmethoxyimino)-6,7-Dihydro-(5H)-Dibenzo[a,c]Cycloheptene] |  |

| SMILES | IC50 [1] | IC50 [2] | inhibition of platelet aggregation compared with aspirin (platelet aggregation) |
| --- | --- | --- | --- |
| CC(C)(C)ON=C1CC(=NOC(C)(C)C)c2ccccc2-c2ccccc21 [Example 6, 5,7-Bis(Tert.-Butoxyimino)-6,7-Dihydro-(5H)-Dibenzo[a,c]Cycloheptene] | 460 µg/mL (≈ 1260 µM) | 600 µg/mL (≈ 1650 µM) |  |
| CC(C)(C)OC(=O)CON=C1CC(=NOCC(=O)OC(C)(C)C)c2ccccc2-c2ccccc21 [Example 11, 5,7-Bis(Tert.-Butoxycarbonylmethoxyimino)-6,7-Dihydro-(5H)-Dibenzo[a,c]Cycloheptene] | 200 µg/mL (≈ 416 µM) | 320 µg/mL (≈ 666 µM) |  |
